In patent US10537100B2, “Substituted methylenedioxybenzyl compounds and their use as synergists” (Endura SPA, priority 2015, dated 2020):
Marks after values point to notes of the source that are not given here.

Key:
Format in all cases: in vivo
[1] = system: Musca domestica; test: Contact test on treated glass surfaces, synergist with cypermethrin
Method: Laboratory bred Musca domestica species, 4-5 days old mixed sex imagoes derived from a field collected strain were assayed for the test. 1000 ml of test solutions were prepared diluting in water 6.06 grams of cypermethrin commercial formulation, equivalent to 0.224 g of cypermethrin per liter of insecticidal solution and a suitable amount of synergist such as to have a ratio between cypermethryn and synergists=1:13. The synergists were formulated in the form of emulsified concentrate (EC). The following amount of the formulations of synergist EC were added to the above described insecticidal solution of cypermethrin.
3.83 g of EC formulation containing 77.1% (w/w) of the compound of Example 2 (5-n-butyl-6-((prop-2-ynyloxy)methyl)benzo[d][1,3]dioxole)
3.57 g of EC formulation containing 83% (w/w) of the comparison compound 5-(but-2-ynyloxymethyl)-6-n-propyl-benzo[1,3]dioxole (EN126) corresponding to 2.95 g of the compound of the invention and of the comparison product per liter of test formulation
1 ml of each test formulation was applied to each individual grass surface of 100 cm^2 by means of a hand held pump sprayer on a scale measuring by 2 decimal precision, being the acceptable limit of divergence: +/−10%. The treated glass surfaces were left at room temperature for 24 hours after treatment and prior to be used. 40 mixed sex Musca domestica imagoes (20 males and 20 females) were selected and placed into a 500 cm^3 glass cylinders covered with an untreated glass surface until the start of the study. Five replicates were executed, altogether 200 houseflies (100 males and 100 females) were used per test formulation. At the beginning of the test, the untreated glass covering the glass cylinder was replaced with a glass surface treated with the test formulation. The exposure time was 30 minutes. After this period of time, the treated glass surfaces were removed and replaced with untreated ones. During the test water and food (water/sugar solution) were provided to the test insect inside the glass cylinders
In parallel with the test, the mortality of flies in an untreated control replicate was determined using the same conditions and methods. Throughout the control test, non-treated glass surfaces covered the glass cylinders. The maximum mortality rate allowed within the control group to consider the test representative was 10% after 24 hours. If above this value, the test was not considered representative and was repeated. During the trials, no deviance has been noted.
The test conditions were as follows: • temperature: 23-25° C. • relative humidity: min. 60% • light regime: 12 hrs dark/12 hrs natural illumination.
The reading intervals of the number of knocked down flies were: 10-20-30-40-50-60-90-120-180 minutes. Mortality was determined after 24 hours.
The efficacy was calculated according the following formula

[2] = system: Blattella germanica; test: Contact test on treated glass vials, synergist with cypermethrin; settings: cypermethrin 120 μg/mL, synergist 1.0 g/L; for knock down: average of 4 repetitions
Method: Laboratory bred B. germanica species, mixed ages (pre-immaginal and imagoes) and mixed sex were assayed for the test.
An insecticide stock solution was prepared with 150 μL of cypermethrin commercial formulation and diluted to 15 μL/mL with technical acetone to a final volume of 10 mL. The solution contained 450 μg/mL of cypermethrin per liter of insecticidal solution
Stock solution of the compounds of Example 1 and Example 2 were prepared dissolving around 10 mg of EC formulations containing compounds of the Example 1 and Example 2 in technical acetone to have a final concentration of 1.365 μg/mL.
Stock solution (1650 μL) was diluted to 2250 μL with acetone or with stock of insecticide in acetone to have respectively a final concentration of 1 g/L of synergist (as active ingredient) or 0.12 g/L of cypermethrin+1 g/L of the compounds of Example 1 and Example 2. Insecticide alone was prepared adding 600 μL of stock solution to 1650 μL of acetone.
Glass vials (internal surface 35 cm^2) were treated with 350 μL of insecticide solution and allowed to dry in a fume hood on a vial rotator and used as soon as the acetone was fully evaporated.
B. germanica specimens were introduced singly in vials. 20 specimens were tested for each combination of product. The exposure time to product residues was 30 minutes. After this duration the specimens were transferred to an untreated vial ad provided with food and water.
In parallel within the test, a control study has been set up with the same conditions and methods using acetone only treated vials.
The test conditions were as follows: • temperature: 22-24° C. during knock down evaluation (t: 0-30′); 26° C. during mortality assessment (t: 24 h) • relative humidity: min. 60% • light regime: 8 hrs dark/16 hrs natural illumination.
The reading intervals of the number of knocked down and the number of dead insects were: 5-10-15-20-25-30 minutes. A final reading was done 24 hours after the starting of the exposure.
The calculation model of efficacy is according to Abbott's formula (Abbott W S (1925) A method for computing the effectiveness of an insecticide. J. Econ. Entomol. 18: 265-267):
The results are reported in the following Table 5 and represent an average of 4 repetitions.

[3] = system: Myzus persicae clone highly resistant to insecticide; test: Contact test on treated plant (pea seedling dip), synergist with neonicotinoid; settings: synergist 1 g/L, mortality assessed at 48 hours, Abbott's formula
Method: Laboratory bred Myzus persicae clone highly resistant to insecticide, derived from a field collected population after control failure, mixed age apterous parthenogenetic females adults, were assayed for the test.
Four (4) different commercially available formulated insecticides were used and diluted as follow: • imidacloprid: 1000 mL of test solution was prepared diluting in water 20 μL of commercial formulation, containing 200 g/L of a.i., equivalent to 0.004 g of imidacloprid per liter of insecticidal solution; • thiacloprid: 1000 mL of test solution was prepared diluting in water 24 μL of commercial formulation containing 480 g/L of a.i, equivalent to 0.012 g of thiacloprid per liter of insecticidal solution;
The compounds of Example 1 and Example 2 were formulated in the form of emulsified concentrate (EC).
The following amount of the EC formulations were added to the above described insecticidal solution of insecticide to have a final concentration of synergist equal to 1 g/L:
20 mL of test formulations were used to wet by dipping for 5″ a small pea seedling (1-1.5 cm long). Seedlings were left at room temperature in a fume hood and allowed to dry for 15″. After drying 10-15 apterous parthenogenetic females were moved to the seedling and allowed to settle. Mortality produced by pyrethroids was assessed 24 hours later. Mortality produced by neonicotinoids was assessed 48 hours later.
Three replicates were executed each composed by 2 subreplicates (seedlings) and 60-90 specimens were used per test formulation.
In parallel with the test, the mortality of aphids in an untreated control replicate (seedlings dipped in water) was determined using the same conditions and methods.
The efficacy was calculated according the Abbott's formula: […]

CC1(C)C(C=C(Cl)Cl)C1C(=O)OC(C#N)c1cccc(Oc2ccccc2)c1 (centres unmarked) [Cypermethrin, cypermethrin]
mortality by % ([1]; 24 h, 30 min exposure, cypermethrin formulation 6.06 g/l (0.224 g/l a.i.), cypermethrin:synergist 1:13): 61%
Efficacy % ([1]; calculated from 24 h mortality against untreated control): 58.95%
knock down by % ([1]; reading at 10′, 30 min exposure, cypermethrin formulation 6.06 g/l (0.224 g/l a.i.), cypermethrin:synergist 1:13): 6* %
knock down by % ([1]; reading at 20′, 30 min exposure, cypermethrin formulation 6.06 g/l (0.224 g/l a.i.), cypermethrin:synergist 1:13): 46%
knock down by % ([1]; reading at 30′, 30 min exposure, cypermethrin formulation 6.06 g/l (0.224 g/l a.i.), cypermethrin:synergist 1:13): 68%
knock down by % ([1]; reading at 40′, 30 min exposure, cypermethrin formulation 6.06 g/l (0.224 g/l a.i.), cypermethrin:synergist 1:13): 83%
knock down by % ([1]; reading at 50′, 30 min exposure, cypermethrin formulation 6.06 g/l (0.224 g/l a.i.), cypermethrin:synergist 1:13): 85%
knock down by % ([1]; reading at 60′, 30 min exposure, cypermethrin formulation 6.06 g/l (0.224 g/l a.i.), cypermethrin:synergist 1:13): 85%
knock down by % ([1]; reading at 90′, 30 min exposure, cypermethrin formulation 6.06 g/l (0.224 g/l a.i.), cypermethrin:synergist 1:13): 82%
knock down by % ([1]; reading at 120′, 30 min exposure, cypermethrin formulation 6.06 g/l (0.224 g/l a.i.), cypermethrin:synergist 1:13): 76%
knock down by % ([1]; reading at 180′, 30 min exposure, cypermethrin formulation 6.06 g/l (0.224 g/l a.i.), cypermethrin:synergist 1:13): 73%
mortality at 120 µg/mL ([2]; Blattella germanica, 24 h after start of 30 min exposure, Abbott's formula): 22.9%
knock down ([2]; reading at 5′): 0
knock down ([2]; reading at 10′): 6.7
knock down ([2]; reading at 15′): 20
knock down ([2]; reading at 20′): 40
knock down ([2]; reading at 25′): 56.7
knock down ([2]; reading at 30′): 60

O=[N+]([O-])NC1=NCCN1Cc1ccc(Cl)nc1 [Imidacloprid, imidacloprid, reference compound]
Efficacy of the tested compounds ([3]; Imidacloprid (0.004 g per liter)): 14.2

N#C/N=C1\SCCN1Cc1ccc(Cl)nc1 [thiacloprid, reference compound]
Efficacy of the tested compounds ([3]; thiacloprid (0.012 g per liter)): 36.242
